Reference: US20240270762A1, “PENICILLIN-BINDING PROTEIN INHIBITORS” (priority 2021, published 2024)
≈ marks a conversion by molar mass, not a printed value.

Assays:
P. aeruginosa ATCC 35151 = experiment: microbe, parasite or virus in culture; format: cell-based; details: Pseudomonas aeruginosa, ATCC35151, read-out: Minimum inhibitory concentration, P. aeruginosa ATCC 35151
A. baumannii PBP2 = A. baumannii PBP2 (Acinetobacter baumannii, UniProt D0C8Z9); experiment: Bocillin-FL competition binding via gel filtration, A. baumannii PBP2
Chain of A. baumannii PBP2 (D0C8Z9 whole entry): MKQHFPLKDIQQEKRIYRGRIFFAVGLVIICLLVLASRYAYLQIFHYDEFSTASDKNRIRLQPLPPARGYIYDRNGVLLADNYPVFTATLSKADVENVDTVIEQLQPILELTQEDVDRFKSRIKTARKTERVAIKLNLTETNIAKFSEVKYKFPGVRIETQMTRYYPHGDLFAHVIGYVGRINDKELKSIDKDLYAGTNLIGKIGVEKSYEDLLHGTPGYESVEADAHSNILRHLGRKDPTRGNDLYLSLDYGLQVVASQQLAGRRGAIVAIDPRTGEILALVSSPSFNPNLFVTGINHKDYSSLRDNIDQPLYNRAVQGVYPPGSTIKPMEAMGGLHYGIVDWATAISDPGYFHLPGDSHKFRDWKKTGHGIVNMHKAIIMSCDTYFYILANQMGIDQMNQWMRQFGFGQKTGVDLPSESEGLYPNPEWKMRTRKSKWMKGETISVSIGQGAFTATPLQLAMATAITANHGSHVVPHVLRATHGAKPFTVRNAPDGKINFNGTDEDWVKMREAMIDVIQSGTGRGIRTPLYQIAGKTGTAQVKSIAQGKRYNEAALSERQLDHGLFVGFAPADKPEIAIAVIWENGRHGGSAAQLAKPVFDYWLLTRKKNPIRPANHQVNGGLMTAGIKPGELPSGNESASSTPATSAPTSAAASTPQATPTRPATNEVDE
Outline: (§1)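 Enzyme pre-incubated with increasing inhibitor concentrations, then Bocillin-FL added for 15 min further incubation. Bocillin-FL-bound PBP separated by gel filtration and fluorescence read. EC50 from fitting fraction PBP bound vs inhibitor concentration to a Hill-type equation (ymin, ymax, n).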

A. baumannii CDC-0033 = experiment: microbe, parasite or virus in culture; format: cell-based; details: Acinetobacter baumannii, CDC0033, read-out: MIC, A. baumannii CDC-0033
A. baumannii PBP1a = target: T1, A. baumannii PBP1a (Acinetobacter baumannii, UniProt A0ABX6CK30); experiment: Bocillin-FL competition binding via gel filtration, A. baumannii PBP1a; details: competition binding assay using Bocillin-FL via gel filtration; read-out: A. baumannii PBP1a Potency
T1 sequence (A0ABX6CK30 1-851): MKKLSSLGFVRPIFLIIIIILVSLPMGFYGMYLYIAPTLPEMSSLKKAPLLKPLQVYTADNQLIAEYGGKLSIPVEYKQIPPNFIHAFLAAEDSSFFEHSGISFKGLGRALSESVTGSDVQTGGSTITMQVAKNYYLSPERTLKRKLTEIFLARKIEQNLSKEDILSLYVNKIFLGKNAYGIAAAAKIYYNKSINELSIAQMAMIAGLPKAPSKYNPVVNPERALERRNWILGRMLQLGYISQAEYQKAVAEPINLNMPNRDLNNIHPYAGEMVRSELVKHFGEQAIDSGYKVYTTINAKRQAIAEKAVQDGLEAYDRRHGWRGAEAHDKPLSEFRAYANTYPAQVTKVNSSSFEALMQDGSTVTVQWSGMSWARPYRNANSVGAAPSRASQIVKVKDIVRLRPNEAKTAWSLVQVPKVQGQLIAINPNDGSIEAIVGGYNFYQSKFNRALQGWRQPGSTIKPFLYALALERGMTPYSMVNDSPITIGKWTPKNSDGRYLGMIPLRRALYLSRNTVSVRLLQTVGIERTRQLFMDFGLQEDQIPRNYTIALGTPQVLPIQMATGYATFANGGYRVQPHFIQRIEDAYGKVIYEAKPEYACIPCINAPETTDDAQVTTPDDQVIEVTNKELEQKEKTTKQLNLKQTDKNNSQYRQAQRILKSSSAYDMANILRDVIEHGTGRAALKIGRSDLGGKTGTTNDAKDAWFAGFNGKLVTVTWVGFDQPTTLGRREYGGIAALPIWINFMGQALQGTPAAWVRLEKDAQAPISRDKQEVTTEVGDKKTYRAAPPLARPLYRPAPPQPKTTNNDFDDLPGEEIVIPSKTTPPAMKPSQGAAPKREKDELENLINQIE
Outline: as §1

[1] = system: B. humptydooensis ATCC BAA-2767; experiment: microbe, parasite or virus in culture; format: cell-based; details: Burkholderia humptydooensis, ATCCBAA2767, read-out: Minimum inhibitory concentration (MIC), B. humptydooensis ATCC BAA-2767
[2] = system: B. thailandensis ATCC 700388; experiment: microbe, parasite or virus in culture; format: cell-based; details: Burkholderia thailandensis, ATCC700388, read-out: Minimum inhibitory concentration (MIC), B. thailandensis ATCC 700388
P. aeruginosa ATCC 27853 = experiment: microbe, parasite or virus in culture; format: cell-based; details: Pseudomonas aeruginosa, ATCC27853, read-out: Minimum inhibitory concentration, P. aeruginosa ATCC 27853
A. baumannii CDC-0045 = experiment: microbe, parasite or virus in culture; format: cell-based; details: Acinetobacter baumannii, CDC0045, read-out: MIC, A. baumannii CDC-0045
P. aeruginosa CDC-0110 = experiment: microbe, parasite or virus in culture; format: cell-based; details: Pseudomonas aeruginosa, CDC0110, read-out: Minimum inhibitory concentration, P. aeruginosa CDC-0110
A. baumannii CDC-0036 = experiment: microbe, parasite or virus in culture; format: cell-based; details: Acinetobacter baumannii, CDC0036, read-out: MIC, A. baumannii CDC-0036
[3] = system: P. aeruginosa (ΔmexAB-oprM); experiment: Broth microdilution MIC in iron-depleted CAMHB (IDM); format: cell-based; details: Pseudomonas aeruginosa; iron-depleted CAMHB (IDM); […]; read-out: Minimum inhibitory concentration, P. aeruginosa ΔmexAB-oprM

| SMILES | MIC (P. aeruginosa ATCC 35151) [µg/mL] | EC50 (A. baumannii PBP2) [µM] | MIC (A. baumannii CDC-0033) [µg/mL] | EC50 (A. baumannii PBP1a) [µM] | MIC [1] [µg/mL] | MIC [2] [µg/mL] | MIC (P. aeruginosa ATCC 27853) [µg/mL] | MIC (A. baumannii CDC-0045) [µg/mL] | MIC (P. aeruginosa CDC-0110) [µg/mL] | MIC (A. baumannii CDC-0036) [µg/mL] | MIC [3] [µg/mL] |
| --- | --- | --- | --- | --- | --- | --- | --- | --- | --- | --- | --- |
| O=C(O)c1c(F)ccc2c1OB(O)[C@@H](NC(=O)[C@H](NC(=O)N1CCN(C3CCN(C(=O)c4cccc(O)c4Cl)CC3)C1=O)c1cc(F)c(O)c(O)c1Cl)C2 (single isomer, unassigned) [Example 432] | < 1 | < 10 | 2 to 4 (≈ 2.52 to 5.05 µM) | < 10 | < 1 | < 1 | < 1 | < 1 | < 1 | 2 to 4 (≈ 2.52 to 5.05 µM) | < 1 |
| O=C(O)c1c(F)ccc2c1OB(O)[C@@H](NC(=O)[C@H](NC(=O)N1CCN(C3CCN(C(=O)c4cc(O)ccc4F)CC3)C1=O)c1cc(F)c(O)c(O)c1Cl)C2 (single isomer, unassigned) [Example 433] | < 1 | < 10 | < 1 | < 10 | < 1 | < 1 | < 1 | < 1 | < 1 | < 1 | < 1 |
| O=C(O)c1c(F)ccc2c1OB(O)[C@@H](NC(=O)[C@H](NC(=O)N1CCN(C3CCN(C(=O)c4cc(O)ccc4Cl)CC3)C1=O)c1cc(F)c(O)c(O)c1Cl)C2 (single isomer, unassigned) [Example 434] | < 1 | < 10 | < 1 | < 10 | < 1 | < 1 | < 1 | < 1 | < 1 | < 1 | < 1 |
| O=C(O)c1c(F)ccc2c1OB(O)[C@@H](NC(=O)[C@H](NC(=O)N1CCN(C3CCN(C(=O)c4ccc(F)c(O)c4)CC3)C1=O)c1cc(F)c(O)c(O)c1Cl)C2 (single isomer, unassigned) [Example 435] | < 1 | < 10 | < 1 | < 10 | < 1 | < 1 | < 1 | < 1 | < 1 | < 1 | < 1 |
| O=C(O)c1c(F)ccc2c1OB(O)[C@@H](NC(=O)[C@H](NC(=O)N1CCN(C3CCN(C(=O)c4cc(O)cc(F)c4)CC3)C1=O)c1cc(F)c(O)c(O)c1Cl)C2 (single isomer, unassigned) [Example 436] | < 1 | < 10 | < 1 | < 10 | < 1 | < 1 | < 1 | < 1 | < 1 | < 1 | < 1 |
| O=C(O)c1c(F)ccc2c1OB(O)[C@@H](NC(=O)[C@H](NC(=O)N1CCN(C3CCN(C(=O)c4ccc(F)c(O)c4F)CC3)C1=O)c1cc(F)c(O)c(O)c1Cl)C2 (single isomer, unassigned) [Example 437] | < 1 | < 10 | < 1 | < 10 | < 1 | < 1 | < 1 | < 1 | < 1 | < 1 | < 1 |
| O=C(O)c1c(F)ccc2c1OB(O)[C@@H](NC(=O)[C@H](NC(=O)N1CCN(C3CCN(C(=O)c4c(F)ccc(O)c4F)CC3)C1=O)c1cc(F)c(O)c(O)c1Cl)C2 (single isomer, unassigned) [Example 439] | < 1 | < 10 | < 1 | 10 to 50 | < 1 | < 1 | < 1 | < 1 | < 1 | < 1 | < 1 |
| O=C(O)c1c(F)ccc2c1OB(O)[C@@H](NC(=O)[C@H](NC(=O)N1CCN(C3CCN(C(=O)c4c(F)ccc(O)c4Cl)CC3)C1=O)c1cc(F)c(O)c(O)c1Cl)C2 (single isomer, unassigned) [Example 440] | < 1 | < 10 | < 1 | < 10 | < 1 | < 1 | < 1 | < 1 | < 1 | < 1 | < 1 |
| O=C(O)c1c(F)ccc2c1OB(O)[C@@H](NC(=O)[C@H](NC(=O)N1CCN(C3CCN(C(=O)c4cc(F)c(F)c(O)c4F)CC3)C1=O)c1cc(F)c(O)c(O)c1Cl)C2 (single isomer, unassigned) [Example 441] | < 1 | < 10 | < 1 | < 10 | < 1 | < 1 | 2 to 4 (≈ 2.46 to 4.93 µM) | < 1 | < 1 | < 1 | < 1 |
| O=C(O)c1c(F)ccc2c1OB(O)[C@@H](NC(=O)[C@H](NC(=O)N1CCN(C3CCN(C(=O)c4cc(O)cc(O)c4)CC3)C1=O)c1cc(F)c(O)c(O)c1Cl)C2 (single isomer, unassigned) [Example 442] | < 1 | < 10 | < 1 | < 10 | < 1 | < 1 | < 1 | < 1 | < 1 | < 1 | < 1 |
| O=C(O)c1c(F)ccc2c1OB(O)[C@@H](NC(=O)[C@H](NC(=O)N1CCN(C3CCN(C(=O)c4cc(O)c(F)c(O)c4)CC3)C1=O)c1cc(F)c(O)c(O)c1Cl)C2 (single isomer, unassigned) [Example 443] | < 1 | < 10 | < 1 | < 10 | < 1 | < 1 | < 1 | < 1 | < 1 | < 1 | < 1 |
| O=C(O)c1c(F)ccc2c1OB(O)[C@@H](NC(=O)[C@H](NC(=O)N1CCN(C3CCN(C(=O)c4cc(O)c(F)c(O)c4F)CC3)C1=O)c1cc(F)c(O)c(O)c1Cl)C2 (single isomer, unassigned) [Example 444] | < 1 | < 10 | < 1 | < 10 | < 1 | < 1 | < 1 | < 1 | < 1 | < 1 | < 1 |
| O=C(O)c1c(F)ccc2c1OB(O)[C@@H](NC(=O)[C@H](NC(=O)N1CCN(C3CCN(C(=O)Nc4cccc(O)c4F)CC3)C1=O)c1cc(F)c(O)c(O)c1Cl)C2 (single isomer, unassigned) [Example 446] | < 1 | < 10 | < 1 | 10 to 50 | < 1 | < 1 | < 1 | < 1 | < 1 | < 1 | < 1 |
| O=C(O)c1c(F)ccc2c1OB(O)[C@@H](NC(=O)[C@H](NC(=O)N1CCN(C3CCN(C(=O)Nc4cc(O)ccc4Cl)CC3)C1=O)c1cc(F)c(O)c(O)c1Cl)C2 (single isomer, unassigned) [Example 448] | < 1 | < 10 | < 1 | < 10 | < 1 | < 1 | < 1 | < 1 | < 1 | < 1 | < 1 |
